Test results reported in patent US20010011143A1, “Process for preparing phenoxyphenylsulfonyl halides” (priority 1998, published 2001).

Compound: O=S(=O)(Oc1ccc(F)cc1)c1ccc(Oc2ccc(F)cc2)cc1 [Example 1, 4-(4-Fluorophenoxy)benzenesulfonic Acid 4-Fluorophenyl Ester]
- melting point: 78 to 83 °C
